Data reported in patent publication US12295936B2, “Immunomodulating urea azalides” (Zoetis Services LLC, priority 2020, dated 2025).
Read-outs that look alike come from different tables or passages of the source.

Assays:
IL-1β = experiment: LPS-stimulated whole bovine blood assay, MSD cytokine detection; format: cell-based; settings: overstimulation of IL-1β, LPS-stimulated bovine whole blood
Description: (§1) The effect of multiple cytokines was not easily quantified using single cell types. Therefore, a fresh whole bovine blood assay was developed with LPS as a stimulant (TLR-4 agonist) and with IL-1β and TNF-α as the read-out. Compounds of the invention were evaluated against a positive control for their ability to inhibit LPS-induced IL-1β and TNF-α as an overall evaluation of relative potency and modulation of target pathways (Table 6).
(§2) In order to correlate RNA sequencing data to cytokine changes the whole blood assay was utilized. […] The enhancement result represents an overall stimulation of cytokine levels due to cellular stress or potential toxicity with increasing concentrations of the compound, representing a typical bell shape response curve for immunomodulatory activity.
In the bovine whole blood in vitro screening assay the inhibition of TNFα as induced by stimulation by lipopolysaccharide (LPS) and as measured by half the maximal inhibitory concentration (IC50) is recognized as the primary biomarker of immunomodulation potency upon pretreatment with the compounds of the invention.

IL-6 = experiment: as above; format: cell-based; settings: LPS-stimulated bovine whole blood, read-out: IL-6 (IC50 μM)
Source text: as §2

TNF-α = experiment: as above; format: cell-based; settings: LPS-stimulated bovine whole blood, read-out: TNF-α (IC50 μM)
Description: as §1, with “Therefore,” for “The effect of multiple cytokines was not easily quantified using single cell types. Therefore,”
In the bovine whole blood in vitro screening assay the inhibition of TNFα as induced by stimulation by lipopolysaccharide (LPS) and as measured by half the maximal inhibitory concentration (IC50) is recognized as the primary biomarker of immunomodulation potency upon pretreatment with the compounds of the invention. IL-1β is a mediator of the inflammation response and is involved in a number of cellular activities including proliferation, differentiation and apoptosis. IL-1β is also released upon cellular stress or cytotoxicity or upon TLR stimulation. In the bovine whole blood assay the stimulation of IL-1β release upon increasing concentration of test compound is seen as a potential cellular toxicity signal as induced by the test compound. In order to estimate a therapeutic index from the in vitro assay a differential between the TNFα IC50 (immunomodulation potency) versus the perceived cellular toxicity concentration (IL-1β release or overstimulation) was utilized.

[1] = system: BRD pathogens, M. haemolytica and P. multocida; experiment: MIC screening panel of BRD pathogens (antibacterial / non-antibacterial); settings: read-out: antibacterial / non-antibacterial (MIC for the BRD pathogens)

In the case of “1-((2S,3R,4S,6R)-2-(((2R,3S,4R,5R,8R,10R,11R,12S,13S,14R)-13-(((2R,4R,5S,6S)-5-(ethoxymethyl)-5-hydroxy-4-methoxy-4,6-dimethyltetrahydro-2H-pyran-2-yl)oxy)-2-ethyl-3,4,10-trihydroxy-3,5,8,10,12,14-hexamethyl-15-oxo-1-oxa-6-azacyclopentadecan-11-yl)oxy)-3-hydroxy-6-methyltetrahydro-2H-pyran-4-yl)-1,3-dimethyl-3-phenylurea [Example C-2]”, the “IL-1β OS of LPS” value (IL-1β) was 100 µM, the IC50 (IL-6) was 100 µM and the IC50 (TNF-α) was 200 µM.

In the case of “3-ethyl-1-((2S,3R,4S,6R)-2-(((2R,3S,4R,5R,8R,10R,11R,12S,13S,14R)-2-ethyl-3,4,10-trihydroxy-13-(((2R,4R,5S,6S)-5-hydroxy-4-methoxy-4,6-dimethyl-5-((4-methylpiperazin-1-yl)methyl)tetrahydro-2H-pyran-2-yl)oxy)-3,5,8,10,12,14-hexamethyl-15-oxo-1-oxa-6-azacyclopentadecan-11-yl)oxy)-3-hydroxy-6-methyltetrahydro-2H-pyran-4-yl)-1-methylurea [Example J-9]”, the “IL-1β OS of LPS” value (IL-1β) was greater than 500 µM, the IC50 (IL-6) was greater than 500 µM and the IC50 (TNF-α) was greater than 500 µM.

In the case of `CCCNC[C@]1(O)[C@H](C)O[C@@H](O[C@H]2[C@H](C)[C@@H](O[C@@H]3O[C@H](C)C[C@H](NCC(C)C)[C@H]3Oc3ccccc3)[C@](C)(O)C[C@@H](C)CN[C@H](C)[C@@H](O)[C@](C)(O)[C@@H](CC)OC(=O)[C@@H]2C)C[C@@]1(C)OC` [E-155], the “IL-1β OS of LPS” value (IL-1β) was 6 µM, the IC50 (IL-6) was 8 µM and the IC50 (TNF-α) was 8 µM.

For `CC[C@H]1OC(=O)[C@H](C)[C@@H](O)[C@H](C)[C@@H](O[C@@H]2O[C@H](C)C[C@H](N(C)C(=O)Nc3ccncc3)[C@H]2O)[C@](C)(O)C[C@@H](C)CN[C@H](C)[C@@H](O)[C@]1(C)O` [Example A-5, 1-((2S,3R,4S,6R)-2-(((2R,3S,4R,5R,8R,10R,11R,12S,13S,14R)-2-ethyl-3,4,10,13-tetrahydroxy-3,5,8,10,12,14-hexamethyl-15-oxo-1-oxa-6-azacyclopentadecan-11-yl)oxy)-3-hydroxy-6-methyltetrahydro-2H-pyran-4-yl)-1-methyl-3-(pyridin-4-yl)urea], the “IL-1β OS of LPS” value (IL-1β) was 24 µM, the IC50 (IL-6; Bos taurus) was greater than 250 µM and the IC50 (TNF-α; Bos taurus) was greater than 250 µM.

In the case of `CC[C@H]1OC(=O)[C@H](C)[C@@H](O)[C@H](C)[C@@H](O[C@@H]2O[C@H](C)C[C@H](N(C)C(=O)Nc3ccccc3OC)[C@H]2O)[C@](C)(O)C[C@@H](C)CN[C@H](C)[C@@H](O)[C@]1(C)O` [Example A-8, 1-((2S,3R,4S,6R)-2-(((2R,3S,4R,5R,8R,10R,11R,12S,13S,14R)-2-ethyl-3,4,10,13-tetrahydroxy-3,5,8,10,12,14-hexamethyl-15-oxo-1-oxa-6-azacyclopentadecan-11-yl)oxy)-3-hydroxy-6-methyltetrahydro-2H-pyran-4-yl)-3-(2-methoxyphenyl)-1-methylurea], the “IL-1β OS of LPS” value (IL-1β) was 101 µM, the IC50 (IL-6; Bos taurus) was 16 µM and the IC50 (TNF-α; Bos taurus) was greater than 250 µM.

For `CC[C@H]1OC(=O)[C@H](C)[C@@H](O)[C@H](C)[C@@H](O[C@@H]2O[C@H](C)C[C@H](N(C)C(=O)Nc3ccccc3)[C@H]2O)[C@](C)(O)C[C@@H](C)CN[C@H](C)[C@@H](O)[C@]1(C)O` [Example A-13, 1-((2S,3R,4S,6R)-2-(((2R,3S,4R,5R,8R,10R,11R,12S,13S,14R)-2-ethyl-3,4,10,13-tetrahydroxy-3,5,8,10,12,14-hexamethyl-15-oxo-1-oxa-6-azacyclopentadecan-11-yl)oxy)-3-hydroxy-6-methyltetrahydro-2H-pyran-4-yl)-1-methyl-3-phenylurea], the “IL-1β OS of LPS” value (IL-1β) was greater than 500 µM, the IC50 (IL-6; Bos taurus) was greater than 500 µM and the IC50 (TNF-α; Bos taurus) was 200 µM.

`CC[C@H]1OC(=O)[C@H](C)[C@@H](O[C@H]2C[C@@](C)(OC)[C@@](C)(O)[C@H](C)O2)[C@H](C)[C@@H](O[C@@H]2O[C@H](C)C[C@H](N(C)C(=O)N(C)c3ccccc3)[C@H]2O)[C@](C)(O)C[C@@H](C)CN[C@H](C)[C@@H](O)[C@]1(C)O` [Example B-1, 1-((2S,3R,4S,6R)-2-(((2R,3S,4R,5R,8R,10R,11R,12S,13S,14R)-2-ethyl-3,4,10-trihydroxy-13-(((2R,4R,5S,6S)-5-hydroxy-4-methoxy-4,5,6-trimethyltetrahydro-2H-pyran-2-yl)oxy)-3,5,8,10,12,14-hexamethyl-15-oxo-1-oxa-6-azacyclopentadecan-11-yl)oxy)-3-hydroxy-6-methyltetrahydro-2H-pyran-4-yl)-1,3-dimethyl-3-phenylurea] was tested, and the “IL-1β OS of LPS” value (IL-1β) was 40 µM, the IC50 (IL-6; Bos taurus) was 31 µM and the IC50 (TNF-α; Bos taurus) was 25 µM.

In the case of `CC[C@H]1OC(=O)[C@H](C)[C@@H](O[C@H]2C[C@@](C)(OC)[C@H](O)[C@H](C)O2)[C@H](C)[C@@H](O[C@@H]2O[C@H](C)C[C@H](N(C)C(=O)N(C)c3ccc(C(F)(F)F)cc3)[C@H]2O)[C@](C)(O)C[C@@H](C)CN[C@H](C)[C@@H](O)[C@]1(C)O` [Example B-2a, 1-((2S,3R,4S,6R)-2-(((2R,3S,4R,5R,8R,10R,11R,12S,13S,14R)-2-ethyl-3,4,10-trihydroxy-13-(((2R,4R,5R,6S)-5-hydroxy-4-methoxy-4,6-dimethyltetrahydro-2H-pyran-2-yl)oxy)-3,5,8,10,12,14-hexamethyl-15-oxo-1-oxa-6-azacyclopentadecan-11-yl)oxy)-3-hydroxy-6-methyltetrahydro-2H-pyran-4-yl)-1,3-dimethyl-3-(4-(trifluoromethyl)phenyl)urea], the “IL-1β OS of LPS” value (IL-1β) was 16 µM, the IC50 (IL-6; Bos taurus) was 23 µM and the IC50 (TNF-α; Bos taurus) was 9 µM.

`CC[C@H]1OC(=O)[C@H](C)[C@@H](O[C@H]2C[C@@](C)(OC)[C@@H](O)[C@H](C)O2)[C@H](C)[C@@H](O[C@@H]2O[C@H](C)C[C@H](N(C)C(=O)N(C)c3ccccc3)[C@H]2O)[C@](C)(O)C[C@@H](C)CN[C@H](C)[C@@H](O)[C@]1(C)O` [Example B-3, 1-((2S,3R,4S,6R)-2-(((2R,3S,4R,5R,8R,10R,11R,12S,13S,14R)-2-ethyl-3,4,10-trihydroxy-13-(((2R,4R,5S,6S)-5-hydroxy-4-methoxy-4,6-dimethyltetrahydro-2H-pyran-2-yl)oxy)-3,5,8,10,12,14-hexamethyl-15-oxo-1-oxa-6-azacyclopentadecan-11-yl)oxy)-3-hydroxy-6-methyltetrahydro-2H-pyran-4-yl)-1,3-dimethyl-3-phenylurea] was tested, and the “IL-1β OS of LPS” value (IL-1β) was 40 µM, the IC50 (IL-6; Bos taurus) was 65 µM and the IC50 (TNF-α; Bos taurus) was 37 µM.

For `CC[C@H]1OC(=O)[C@H](C)[C@@H](O[C@H]2C[C@@](C)(OC)[C@](O)(CNCCN3CCOCC3)[C@H](C)O2)[C@H](C)[C@@H](O[C@@H]2O[C@H](C)C[C@H](N(C)C(=O)N(C)c3ccccc3)[C@H]2O)[C@](C)(O)C[C@@H](C)CN[C@H](C)[C@@H](O)[C@]1(C)O` [Example H-42, 1-((2S,3R,4S,6R)-2-(((2R,3S,4R,5R,8R,10R,11R,12S,13S,14R)-2-ethyl-3,4,10-trihydroxy-13-(((2R,4R,5S,6S)-5-hydroxy-4-methoxy-4,6-dimethyl-5-(((2-morpholinoethyl)amino)methyl)tetrahydro-2H-pyran-2-yl)oxy)-3,5,8,10,12,14-hexamethyl-15-oxo-1-oxa-6-azacyclopentadecan-11-yl)oxy)-3-hydroxy-6-methyltetrahydro-2H-pyran-4-yl)-1,3-dimethyl-3-phenylurea], the MIC [1] was greater than 64 µg/mL, the “IL-1β OS of LPS” value (IL-1β) was 100 µM and the IC50 (IL-6; Bos taurus) was 177 µM.
